EC50 data for 22 molecules are collected here from patent publication US10407445B2, “Hepatitis C virus inhibitors” (ENANTA PHARMACEUTICALS, INC., priority 2013, dated 2019).

Assay type in all cases: cell-based
For test [1], the system named is HCV GT 1b replicon. The test is described as follows: HCV replicon assay, stable GT 1b replicon (Renilla luciferase). The conditions noted are these: Hepatitis C virus, GT1B, 72 h. A digest of the protocol:
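Stable Huh-7.5-based GT1b replicon (Con1-derived) carrying hRluc-Neo, 4000 cells/well seeded onto a sixteen-point half-log compound series in G418-free, phenol red-free medium. After 72 h, Renilla luciferase is read relative to DMSO controls; CC50 in the same cells by CellTiter-Glo.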

Test [2] has as its system HCV GT 2a-J6 replicon. The test is described as follows: HCV replicon assay, GT2a chimeric replicon expressing NS5A from GT2a strain J6. The conditions noted are these: Hepatitis C virus, 72 h, read-out: EC50 2a J6. A digest of the protocol: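 Stable Huh-7.5 lines carried JFH-1 subgenomic replicons with hRluc-Neo reporter, in which NS5A was swapped for GT3a strain S52 or GT2a strain J6 NS5A. Renilla luciferase was read after 72 h relative to DMSO controls.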

Test [3] relates to GT1a replicon encoding NS5A mutation M28T. Kind of test: Transient replication assay, GT1a replicon with NS5A mutation M28T. The conditions noted are these: Hepatitis C virus, read-out: EC50 1a M28T.
Test [4] has as its system GT1a replicon encoding NS5A mutation L31V. The test is described as follows: Transient replication assay, GT1a replicon with NS5A mutation L31V. The conditions noted are these: Hepatitis C virus, read-out: EC50 1a L31V.
Test [5] relates to GT1a replicon encoding NS5A mutation Y93C. The test is described as follows: Transient replication assay, GT1a replicon with NS5A mutation Y93C. The conditions noted are these: Hepatitis C virus, read-out: EC50 1a Y93C.

Broadly, the EC50 is the concentration giving half of the maximal effect.

In the case of `COC(=O)N[C@H](C(=O)N1C[C@]2(CCCOC2)C[C@H]1c1ncc(-c2ccc3c(c2)COc2cc(-c4cnc([C@@H]5C[C@@H]6CCCC[C@@H]6N5C(=O)[C@@H](NC(=O)OC)C(C)C)[nH]4)ccc2-3)[nH]1)C(C)C` [Compound 15], the EC50 in test [1] came to 0.012 nM; in test [2] it was 1 nM; in test [3], 0.01 nM; in test [4], 0.1 nM; in test [5], 0.2 nM.
The matching figures for `COC(=O)N[C@H](C(=O)N1C[C@]2(CCCOC2)C[C@H]1c1ncc(-c2ccc(-c3ccc4c(ccc5nc([C@@H]6CC7(CC7)CN6C(=O)[C@@H](NC(=O)OC)C(C)C)[nH]c54)c3)cc2)[nH]1)C(C)C` [Compound 28]: 0.011 nM, 13 nM, 0.09 nM, 0.3 nM and 0.1 nM.
The like results for `COC(=O)N[C@H](C(=O)N1C[C@]2(CCCOC2)C[C@H]1c1ncc(-c2ccc3cc4cc(-c5cnc([C@@H]6C[C@@H]7CCCC[C@@H]7N6C(=O)[C@@H](NC(=O)OC)C(C)C)[nH]5)ccc4cc3c2)[nH]1)C(C)C` [Compound 13] were, in that order, 0.021 nM, 17 nM, 0.02 nM, 0.8 nM and 0.3 nM.
The like results for `COC(=O)N[C@H](C(=O)N1CCC[C@H]1c1nc2ccc3cc(-c4ccc5c(ccc6nc([C@@H]7C[C@@]8(CCCOC8)CN7C(=O)[C@@H](NC(=O)OC)C(C)C)[nH]c65)c4)ccc3c2[nH]1)C(C)C` [Compound 48] were, in that order, 0.009 nM, 0.03 nM, 0.05 nM, 0.5 nM and 0.02 nM.
Turning to `COC(=O)N[C@H](C(=O)N1CCC[C@H]1c1ncc(-c2ccc(-c3ccc4c(ccc5nc([C@@H]6CCCN6C(=O)[C@@H](NC(=O)OC)C(C)C)[nH]c54)c3)cc2)[nH]1)C(C)C` [Example 102], the EC50 in test [1] was 0.014 nM; in test [2] it was 1 nM; in test [3] it was 1 nM; in test [4], 8 nM; in test [5], 0.6 nM.
In the case of `COC(=O)N[C@H](C(=O)N1C[C@]2(CCCOC2)C[C@H]1c1ncc(-c2ccc(-c3ccc4c(ccc5nc([C@@H]6C[C@@H]7C[C@@H]7N6C(=O)[C@@H](NC(=O)OC)C(C)C)[nH]c54)c3)cc2)[nH]1)C(C)C` [Compound 20], the EC50 in test [1] worked out at 0.011 nM; in test [2], 23 nM; in test [3], 0.9 nM; in test [4] it was 7 nM; in test [5], 1 nM.
For `COC(=O)N[C@H](C(=O)N1C[C@]2(CCCOC2)C[C@H]1c1nc2ccc3cc(-c4ccc(-c5cnc([C@@H]6C[C@@H]7CCCC[C@@H]7N6C(=O)[C@@H](NC(=O)OC)C(C)C)[nH]5)cc4)ccc3c2[nH]1)C(C)C` [Compound 24], the EC50 in test [1] is 0.006 nM; in test [2], 0.3 nM; in test [3] it was 0.02 nM; in test [4], 0.07 nM; in test [5], 0.09 nM.
The matching figures for `COC(=O)N[C@H](C(=O)N1C[C@]2(CCCOC2)C[C@H]1c1nc2ccc3cc(-c4ccc(-c5cnc([C@@H]6C[C@@H]7COC[C@@H]7N6C(=O)[C@@H](NC(=O)OC)C(C)C)[nH]5)cc4)ccc3c2[nH]1)C(C)C` [Compound 34]: 0.041 nM, 0.7 nM, 0.03 nM, 0.08 nM and 0.09 nM.
The matching figures for `COC(=O)N[C@H](C(=O)N1C[C@]2(CCCOC2)C[C@H]1c1ncc(-c2ccc(-c3ccc4c(ccc5nc([C@@H]6C[C@@]7(CCCOC7)CN6C(=O)[C@@H](NC(=O)OC)C(C)C)[nH]c54)c3)cc2)[nH]1)C(C)C` [Compound 11]: 0.052 nM, 2 nM, 0.02 nM, 0.08 nM and 0.07 nM.
As to `COC(=O)N[C@H](C(=O)N1C[C@]2(CCCOC2)C[C@H]1c1nc2ccc3cc(-c4ccc5c(ccc6nc([C@@H]7C[C@@H]8CCCC[C@@H]8N7C(=O)[C@@H](NC(=O)OC)C(C)C)[nH]c65)c4)ccc3c2[nH]1)C(C)C` [Compound 23], the EC50 in test [1] was 0.007 nM; in test [2], 0.05 nM; in test [3] it was 0.02 nM; in test [4], 0.07 nM; in test [5], 0.02 nM.
In the case of `COC(=O)N[C@H](C(=O)N1C[C@@]2(CCCO2)C[C@H]1c1ncc(-c2ccc(-c3ccc4c(ccc5nc([C@@H]6CCCN6C(=O)[C@@H](NC(=O)OC)C(C)C)[nH]c54)c3)cc2)[nH]1)C(C)C` [Example 82], the EC50 in test [1] amounted to 0.008 nM; in test [2], 40 nM; in test [3], 14 nM; in test [4], 46 nM; in test [5], 0.2 nM.
As for `COC(=O)N[C@H](C(=O)N1C[C@]2(CCCOC2)C[C@H]1c1nc2ccc3cc(-c4ccc(-c5cnc([C@@H]6C[C@H]7C[C@H]7N6C(=O)[C@@H](NC(=O)OC)C(C)C)[nH]5)cc4)ccc3c2[nH]1)C(C)C` [Compound 5], the EC50 in test [1] worked out at 0.011 nM; in test [2], 3 nM; in test [3], 0.03 nM; in test [4], 0.1 nM; in test [5] it was 0.06 nM.
For the molecule `COC(=O)N[C@H](C(=O)N1CCC[C@H]1c1ncc(-c2ccc(-c3ccc4c(c3)OCc3nc([C@@H]5C[C@@]6(CCCOC6)CN5C(=O)[C@@H](NC(=O)OC)C(C)C)[nH]c3-4)cc2)[nH]1)C(C)C` [Compound 33], the EC50 is 0.038 nM in test [1]; 1 nM in test [2]; 0.3 nM in test [3]; 0.3 nM in test [4]; 0.1 nM in test [5].
With `COC(=O)N[C@H](C(=O)N1C[C@@]2(CCCOC2)C[C@H]1c1ncc(-c2ccc(-c3ccc4c(ccc5nc([C@@H]6CCCN6C(=O)[C@@H](NC(=O)OC)C(C)C)[nH]c54)c3)cc2)[nH]1)C(C)C` [Compound 27], the EC50 came out at 0.022 nM in test [1]; 50 nM in test [2]; 0.03 nM in test [3]; 0.1 nM in test [4]; 0.02 nM in test [5].
For `COC(=O)N[C@H](C(=O)N1[C@H](c2nc3ccc4cc(-c5ccc(-c6cnc([C@@H]7C[C@@]8(CCCOC8)CN7C(=O)[C@H](NC(=O)OC)C7C[C@@H](C)O[C@H](C)C7)[nH]6)cc5)ccc4c3[nH]2)C[C@@H]2CCCC[C@@H]21)C(C)C` (stereo in doubt) [Compound 39], the EC50 in test [1] came out at 0.029 nM; in test [2], 41 nM; in test [3], 0.4 nM; in test [4] it was 4 nM; in test [5], 4 nM.
Take `COC(=O)N[C@H](C(=O)N1CCC[C@H]1c1nc2ccc3cc(-c4ccc5c(ccc6nc([C@@H]7CCCN7C(=O)[C@@H](NC(=O)OC)C(C)C)[nH]c65)c4)ccc3c2[nH]1)C(C)C` [Example 101]: the EC50 turned out to be 0.021 nM in test [1]; 0.1 nM in test [2]; 1 nM in test [3]; 6 nM in test [4]; 0.5 nM in test [5].
Turning to `COC(=O)N[C@H](C(=O)N1C[C@]2(CCCOC2)C[C@H]1c1ncc(-c2ccc(-c3ccc4c(ccc5nc([C@@H]6CCCN6C(=O)[C@@H](NC(=O)OC)C(C)C)[nH]c54)c3)cc2)[nH]1)C(C)C` [Compound 47], the concentration for a half-maximal effect (EC50) turned out to be 0.016 nM in test [1]; 0.6 nM in test [2]; 0.2 nM in test [3]; 1 nM in test [4]; 0.3 nM in test [5].
On to `COC(=O)N[C@H](C(=O)N1C[C@]2(CCCOC2)C[C@H]1c1ncc(-c2ccc(-c3ccc4c(ccc5nc([C@@H]6C[C@@H]7CCC[C@@H]7N6C(=O)[C@@H](NC(=O)OC)C(C)C)[nH]c54)c3)cc2)[nH]1)C(C)C` [Compound 16], for which the EC50 in test [1] stood at 0.01 nM; in test [2], 0.8 nM; in test [3] it was 0.08 nM; in test [4] it was 0.3 nM; in test [5], 0.3 nM.
With `COC(=O)N[C@H](C(=O)N1C[C@]2(CCCOC2)C[C@H]1c1nc2ccc3cc(-c4ccc5c(ccc6nc([C@@H]7C[C@H]8C[C@H]8N7C(=O)[C@@H](NC(=O)OC)C(C)C)[nH]c65)c4)ccc3c2[nH]1)C(C)C` [Compound 6], the EC50 in test [1] is 0.012 nM; in test [2], 0.07 nM; in test [3] it was 0.06 nM; in test [4] it was 0.2 nM; in test [5], 0.02 nM.
The matching figures for `COC(=O)N[C@H](C(=O)N1CCC[C@H]1c1nc2ccc(C#Cc3ccc4c(ccc5nc([C@@H]6CCCN6C(=O)[C@@H](NC(=O)OC)C(C)C)[nH]c54)c3)cc2[nH]1)C(C)C` [Example 103]: 0.004 nM, 16 nM, 6 nM, 29 nM and 2 nM.
The matching figures for `COC(=O)N[C@H](C(=O)N1C[C@]2(CCCOC2)C[C@H]1c1nc2ccc3cc(-c4ccc5c(ccc6nc([C@@H]7C[C@@H]8CCC[C@@H]8N7C(=O)[C@@H](NC(=O)OC)C(C)C)[nH]c65)c4)ccc3c2[nH]1)C(C)C` [Compound 9]: 0.006 nM, 0.04 nM, 0.03 nM, 0.07 nM and 0.03 nM.
The like results for `COC(=O)N[C@H](C(=O)N1C[C@@]2(CCOC2)C[C@H]1c1ncc(-c2ccc(-c3ccc4c(ccc5nc([C@@H]6CCCN6C(=O)[C@@H](NC(=O)OC)C(C)C)[nH]c54)c3)cc2)[nH]1)C(C)C` [Compound 50] were, in that order, 0.016 nM, 13 nM, 0.5 nM, 1 nM and 0.4 nM.
